According to patent US12077555B2, “STAT degraders and uses thereof” (Kymera Therapeutics, Inc., priority 2019, dated 2024):

Target: STAT3 (Homo sapiens, UniProt P40763)
Assay: STAT3 HiBiT degradation assay in transfected A549 cells
Type: cell-based
Parameters: expressed in transfected cells; host or cells: A549
Details: A549, 24 h; read-out: STAT3 HiBiT A549 degradation 24 h: Average external-Abs DC50
Procedure: Compound preparation and Cell seeding: The transfected A549 cells were harvested from dish into cell culture medium and cell numbers counted. Cells were diluted with culture medium to the desired density and 30 μL of cell suspension (about 2000 cells/well) were added into each well of a 384-well cell culture plate as designated and transferred into 37° C. 5% CO2 incubator for 24 h. Compounds were dissolved to 10 mM stock solution and 12 μL of the stock solution was transferred to a 384 LDV-plate. 3 fold, 10-point dilution was performed by transferring 4 μL compound into 8 μL DMSO using a TECAN (EVO200) liquid handler. 30 μL of diluted compound from compound source plate was transferred into the cell plate as designated by using Echo550 and transferred into 37° C. 5% CO2 incubator for 24 h.
Detection: Plates were removed from incubators and equilibrated at room temperature for 15 minutes. Nano-Glo Hibit Lytic Detection reagent (Promega Cat #N3040) was thawed and equilibrated to room temperature before the experiment. 30 μL of Nano-Glo Hibit Lytic Detection reagent was added into each well to be detected. The plates were held at room temperature for 10 min followed by reading on EnSpire.
Data analysis: The remaining activity was calculated following the formula: Remaining Activity (%)=100%×(Lumsample−LumNC)/(LumPC−LumNC). Calculate the IC50 by fitting the curve using Xlfit (v5.3.1.3), equation 201: fit=(A+((B−A)/(1+((x/C)^D)))); A: Bottom; B: Top; C: IC50; and D: Slope.
The letter codes for STAT3 DC50 include: A (<0.01 μM), B (0.01-0.1 μM), C (0.1-1.0 μM), and D (>1.0 μM).

Chain of STAT3 (P40763 whole entry): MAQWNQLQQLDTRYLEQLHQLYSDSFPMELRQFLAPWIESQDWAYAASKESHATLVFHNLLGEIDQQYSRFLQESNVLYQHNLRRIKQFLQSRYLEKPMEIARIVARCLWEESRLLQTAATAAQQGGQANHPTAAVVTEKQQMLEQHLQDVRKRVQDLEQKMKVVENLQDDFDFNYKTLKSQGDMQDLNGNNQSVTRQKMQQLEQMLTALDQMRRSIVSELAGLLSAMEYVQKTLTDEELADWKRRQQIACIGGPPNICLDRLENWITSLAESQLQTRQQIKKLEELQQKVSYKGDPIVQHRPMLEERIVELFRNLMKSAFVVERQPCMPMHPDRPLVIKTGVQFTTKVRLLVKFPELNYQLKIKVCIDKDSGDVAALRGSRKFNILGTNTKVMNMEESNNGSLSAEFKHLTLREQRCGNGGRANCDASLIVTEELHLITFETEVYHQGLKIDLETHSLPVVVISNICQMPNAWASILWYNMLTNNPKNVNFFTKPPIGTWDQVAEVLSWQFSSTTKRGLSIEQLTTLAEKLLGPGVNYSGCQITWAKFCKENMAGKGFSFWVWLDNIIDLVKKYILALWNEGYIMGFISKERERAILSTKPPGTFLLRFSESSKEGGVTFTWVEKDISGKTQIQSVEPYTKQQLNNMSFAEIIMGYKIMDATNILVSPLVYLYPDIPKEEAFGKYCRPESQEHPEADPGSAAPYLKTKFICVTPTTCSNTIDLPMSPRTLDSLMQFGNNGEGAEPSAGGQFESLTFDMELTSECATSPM

`Cn1c(=O)n(C2CCC(=O)NC2=O)c2cccc(CCCCCC(=O)N3CC[C@H]4CC[C@@H](C(=O)N[C@@H](CCC(N)=O)C(=O)NC(c5ccccc5)c5ccccc5)N4C(=O)[C@@H](NC(=O)c4cc5cc(C(=O)P(=O)(O)O)ccc5[nH]4)C3)c21` (stereo partly drawn) [Compound I-123, 2-[[(5S,8S,10aR)-8-[[(1S)-3-carbamoyl-1-(diphenylmethylcarbamoyl)propyl]carbamoyl]-3-[6-[1-(2,6-dioxopiperidin-3-yl)-3-methyl-2-oxo-1,3-benzodiazol-4-yl]hexanoyl]-6-oxo-octahydropyrrolo[1,2-a][1,5]diazocin-5-yl]carbamoyl]-1H-indole-5-carbonylphosphonic acid] and `Cn1c(=O)n(C2CCC(=O)NC2=O)c2ccc(CCCCCCC(=O)N3CC[C@H]4CC[C@@H](C(=O)N[C@H](CCC(N)=O)C(=O)NC(c5ccccc5)c5ccccc5)N4C(=O)[C@@H](NC(=O)c4cc5cc(C(=O)P(=O)(O)O)ccc5[nH]4)C3)cc21` (stereo partly drawn) [Compound I-181, 2-[[(5S,8S,10aR)-8-[[(1R)-3-carbamoyl-1-(diphenylmethylcarbamoyl)propyl]carbamoyl]-3-[7-[1-(2,6-dioxopiperidin-3-yl)-3-methyl-2-oxo-1,3-benzodiazol-5-yl]heptanoyl]-6-oxo-octahydropyrrolo[1,2-a][1,5]diazocin-5-yl]carbamoyl]-1H-indole-5-carbonylphosphonic acid] cannot be ordered by DC50: greater than 1000 nM for the first, greater than 1000 nM for the second.

`Cn1c(=O)n(C2CCC(=O)NC2=O)c2ccc([C@H]3CC[C@@H](CCC(=O)N4CC[C@H]5CC[C@@H](C(=O)N[C@@H](CCC(N)=O)C(=O)NC(c6ccccc6)c6ccccc6)N5C(=O)[C@@H](NC(=O)c5cc6cc(C(=O)P(=O)(O)O)ccc6[nH]5)C4)CC3)cc21` (stereo partly drawn) [Compound I-273, 2-[[(5S,8S,10aR)-8-[[(1S)-3-carbamoyl-1-(diphenylmethylcarbamoyl)propyl]carbamoyl]-6-oxo-3-[3-[(1s,4s)-4-[1-(2,6-dioxopiperidin-3-yl)-3-methyl-2-oxo-1,3-benzodiazol-5-yl]cyclohexyl]propanoyl]-octahydropyrrolo[1,2-a][1,5]diazocin-5-yl]carbamoyl]-1H-indole-5-carbonylphosphonic acid] and `Cc1ncsc1-c1ccc([C@H](C)NC(=O)[C@@H]2C[C@@H](O)CN2C(=O)[C@@H](NC(=O)CCCCCc2cccc(CNC(=O)[C@H](CCC(N)=O)NC(=O)[C@@H]3Cc4cccc5c4N3C(=O)[C@@H](NC(=O)c3cc4cc(C(=O)P(=O)(O)O)ccc4[nH]3)CC5)c2)C(C)(C)C)cc1` [Compound I-220, 2-[[(2S,11S)-2-[[(1S)-3-carbamoyl-1-([[3-(5[[(2S)-1-[(2S,4R)-4-hydroxy-2-[[(1S)-1-[4-(4-methyl-1,3-thiazol-5-yl)phenyl]ethyl]carbamoyl]pyrrolidin-1-yl]-3,3-dimethyl-1-oxobutan-2-yl]carbamoyl]pentyl)phenyl]methyl]carbamoyl)propyl]carbamoyl]-12-oxo-1-azatricyclo[6.4.1.0^[4,13]]trideca-4(13),5,7-trien-11-yl]carbamoyl]-1H-indole-5-carbonylphosphonic acid] fall in the same range of DC50: 100 to 1000 nM for the first, 100 to 1000 nM for the second.

`Cc1ncsc1-c1ccc(CNC(=O)[C@@H]2C[C@@H](O)CN2C(=O)[C@@H](NC(=O)CCCCCc2ccc(OC[C@H](CCC(N)=O)NC(=O)[C@@H]3Cc4cccc5c4N3C(=O)[C@@H](NC(=O)c3cc4cc(C(=O)P(=O)(O)O)ccc4[nH]3)CC5)cc2)C(C)(C)C)cc1` [Compound I-152, 2-[[(2S,11S)-2-[[(2S)-4-carbamoyl-1-[4-(5-[[(2S)-1-[(2S,4R)-4-hydroxy-2-([[4-(4-methyl-1,3-thiazol-5-yl)phenyl]methyl]carbamoyl)pyrrolidin-1-yl]-3,3-dimethyl-1-oxobutan-2-yl]carbamoyl]pentyl)phenoxy]butan-2-yl]carbamoyl]-12-oxo-1-azatricyclo [6.4.1.0^[4,13]]trideca-4(13),5,7-trien-11-yl]carbamoyl]-1H-indole-5-carbonylphosphonic acid] and `Cc1ncsc1-c1ccc(CNC(=O)[C@@H]2C[C@@H](O)CN2C(=O)[C@@H](NC(=O)CCCCCc2ccc(CNC(=O)[C@H](CCC(N)=O)NC(=O)[C@@H]3Cc4cccc5c4N3C(=O)[C@@H](NC(=O)c3cc4cc(C(=O)P(=O)(O)O)ccc4[nH]3)CC5)cc2)C(C)(C)C)cc1` [Compound I-140] cannot be ordered by DC50: greater than 1000 nM for the first, greater than 1000 nM for the second.

Compared with `Cc1ncsc1-c1ccc(CNC(=O)[C@@H]2C[C@@H](O)CN2C(=O)[C@@H](NC(=O)CC2CC(Cc3ccc(CO[C@H](C)[C@H](CCC(N)=O)NC(=O)[C@@H]4Cc5cccc6c5N4C(=O)[C@@H](NC(=O)c4cc5cc(C(=O)P(=O)(O)O)ccc5[nH]4)CC6)cc3)C2)C(C)(C)C)cc1` (some centres unmarked) [Compound I-163], `Cc1ncsc1-c1ccc([C@H](C)NC(=O)[C@@H]2C[C@@H](O)CN2C(=O)[C@@H](NC(=O)CCCc2cccc(OC[C@H](CCC(N)=O)NC(=O)[C@@H]3Cc4cccc5c4N3C(=O)[C@@H](NC(=O)c3cc4cc(C(=O)P(=O)(O)O)ccc4[nH]3)CC5)c2Cl)C(C)(C)C)cc1` [Compound I-253] is lower in DC50: greater than 1000 nM for the first, less than 10 nM for the second.

Compared with `Cc1cc(CCCCCC(=O)N[C@H](C(=O)N2C[C@H](O)C[C@H]2C(=O)N[C@@H](C)c2ccc(-c3scnc3C)cc2)C(C)(C)C)cc(OC[C@H](CCC(N)=O)NC(=O)[C@@H]2Cc3cccc4c3N2C(=O)[C@@H](NC(=O)c2cc3cc(C(=O)P(=O)(O)O)ccc3[nH]2)CC4)c1` [Compound I-213, 2-[[(2S,11S)-2-[[(2S)-4-carbamoyl-1-[3-(5-[[(2S)-1-[(2S,4R)-4-hydroxy-2-[[(1S)-1-[4-(4-methyl-1,3-thiazol-5-yl)phenyl]ethyl]carbamoyl]pyrrolidin-1-yl]-3,3-dimethyl-1-oxobutan-2-yl]carbamoyl]pentyl)-5-methylphenoxy]butan-2-yl]carbamoyl]-12-oxo-1-azatricyclo[6.4.1.0^[4,13]]trideca-4(13),5,7-trien-11-yl]carbamoyl]-1H-indole-5-carbonylphosphonic acid], `Cc1ncsc1-c1ccc([C@H](C)NC(=O)[C@@H]2C[C@@H](O)CN2C(=O)[C@@H](NC(=O)CCCCCc2cccc(NC[C@H](CCC(N)=O)NC(=O)[C@@H]3Cc4cccc5c4N3C(=O)[C@@H](NC(=O)c3cc4cc(C(=O)P(=O)(O)O)ccc4[nH]3)CC5)c2F)C(C)(C)C)cc1` [Compound I-265, diammonium 2-[[(2S,11S)-2-[(4-carbamoyl-1-[[2-fluoro-3-(5-[[(2S)-1-[(2S,4R)-4-hydroxy-2-[[(1S)-1-[4-(4-methyl-1,3-thiazol-5-yl)phenyl]ethyl]carbamoyl]pyrrolidin-1-yl]-3,3-dimethyl-1-oxobutan-2-yl]carbamoyl]pentyl)phenyl]amino]butan-2-yl)carbamoyl]-12-oxo-1-azatricyclo[6.4.1.0^[4,13]]trideca-4(13),5,7-trien-11-yl]carbamoyl]-1H-indole-5-carbonylphosphonate] is higher in DC50: less than 10 nM for the first, 10 to 100 nM for the second.

Same assay, conditions: read-out: STAT3 HiBiT A549 degradation 24 h: Average external-Abs DC50; A549, 24 h

`Cn1c(=O)n(C2CCC(=O)NC2=O)c2ccc(CCc3ccccc3CCC(=O)N3CC[C@H]4CC[C@@H](C(=O)N[C@@H](CCC(N)=O)C(=O)NC(c5ccccc5)c5ccccc5)N4C(=O)[C@@H](NC(=O)c4cc5cc(C(=O)P(=O)(O)O)ccc5[nH]4)C3)cc21` (stereo partly drawn) [Compound I-156, diammonium 2-[[(5S,8S,10aR)-8-[[(1S)-3-carbamoyl-1-(diphenylmethylcarbamoyl)propyl]carbamoyl]-3-[3-(2-[2-[1-(2,6-dioxopiperidin-3-yl)-3-methyl-2-oxo-1,3-benzodiazol-5-yl]ethyl]phenyl)propanoyl]-6-oxo-octahydropyrrolo[1,2-a][1,5]diazocin-5-yl]carbamoyl]-1H-indole-5-carbonylphosphonate] gave a DC50 of 100 to 1000 nM.
